Reference: ChEMBL document CHEMBL3877304, “Peptide-Boronic Acid Inhibitors of Flaviviral Proteases: Medicinal Chemistry and Structural Biology” (J Med Chem, 2017)
Where a SMILES comes first, the peptide text is derived from it. [ ]: non-standard residue; d: D form. The star is where a group is joined. Phe(4-guanidino) = N=C(N)Nc1ccc(C[C@H](N)C(=O)O)cc1; Phe(4-CH2NH2) = NCc1ccc(C[C@H](N)C(=O)O)cc1; Phe(4-NH2) = Nc1ccc(C[C@H](N)C(=O)O)cc1; Bz = O=C(c1ccccc1)*

Key:
[1] = Inhibition of Dengue virus serotype 2 His-tagged NS2B-NS3 protease using Abz-Nle-Lys-Arg-Arg-Ser-3-(NO2)Tyr as substrate preincubated for 15 mins followed by substrate addition measured for 15 mins by fluorescence assay; design: species or system dengue virus type 2
West Nile virus [2] = assay: Inhibition of West Nile virus His-tagged NS2B-NS3 protease expressed in Escherichia coli BL21(DE3) at 50 uM using Abz-Gly-Leu-Lys-Arg-Gly-Gly-3-(NO2)Tyr as substrate preincubated for 15 mins followed by substrate addition measured for 15 mins by fluorescence assay relative to control
dengue virus type 2 [3] = assay: Inhibition of Dengue virus serotype 2 His-tagged NS2B-NS3 protease expressed in Escherichia coli BL21(DE3) at 50 uM using Abz-Nle-Lys-Arg-Arg-Ser-3-(NO2)Tyr as substrate preincubated for 15 mins followed by substrate addition measured for 15 mins by fluorescence assay relative to control
[4] = Inhibition of Zika virus N-terminal His-tagged NS2B-NS3 protease expressed in Escherichia coli BL21 GOLD(DE3) using Bz-Nle-Lys-Lys-Arg-AMC as substrate preincubated for 10 mins followed by substrate addition by fluorophotometric method
[5] = Cytotoxicity against human HuH7 cells assessed as reduction in cell viability after 48 hrs by CellTiter-Glo assay; format: toxicity, cell-based, Huh-7
[6] = Inhibition of West Nile virus His-tagged NS2B-NS3 protease expressed in Escherichia coli BL21(DE3) using Abz-Gly-Leu-Lys-Arg-Gly-Gly-3-(NO2)Tyr as substrate preincubated for 15 mins followed by substrate addition measured for 15 mins by fluorescence assay
dengue virus type 2 [7] = assay: Antiviral activity against Dengue virus serotype 2 infected in African green monkey Vero E6 cells assessed as virus yield reduction after 7 days by crystal violet staining based plaque assay; format: functional, cell-based; conditions: 168 h
West Nile virus [8] = assay: Antiviral activity against West Nile virus infected in African green monkey Vero E6 cells assessed as virus yield reduction at 50 uM after 3 days by crystal violet staining based plaque assay relative to control; format: functional; design: scale not given: the % may be the effect or the level left
dengue virus type 2 [9] = assay: Antiviral activity against Dengue virus serotype 2 infected in African green monkey Vero E6 cells assessed as virus yield reduction at 50 uM after 7 days by crystal violet staining based plaque assay relative to control; format: functional; design: scale not given: the % may be the effect or the level left
West Nile virus [10] = assay: Antiviral activity against West Nile virus infected in African green monkey Vero E6 cells assessed as virus yield reduction after 3 days by crystal violet staining based plaque assay; format: functional, cell-based; conditions: 72 h
dengue virus type 2 [11] = assay: Antiviral activity against Dengue virus serotype 2 infected in African green monkey Vero E6 cells assessed as virus yield reduction at 3.1 uM after 7 days by crystal violet staining based plaque assay relative to control; format: functional; design: scale not given: the % may be the effect or the level left

Row | IC50 [1] [nM] | inhibition (West Nile virus [2]) [%] | inhibition (dengue virus type 2 [3]) [%] | IC50 [4] [nM] | IC50 [6] [nM] | SMILES | Ki [1] [nM] | CC50 at 48 h [5] [nM] | Ki [6] [nM] | Activity (West Nile virus [8]) [%] | further results
1 | 211000 | 33 | – | – | – | N=C(N)NCCC[C@H](NC(=O)[C@H](Cc1cccc(NC(=N)N)c1)NC(=O)c1ccccc1)C(N)=O | – | – | – | – | –
2 | – | 20 | 6.6 | – | – | N=C(N)NCCC[C@H](NC(=O)[C@H](Cc1ccc(CN)cc1)NC(=O)c1ccccc1)C(N)=O (Bz-[Phe(4-CH2NH2)]-Arg-NH2) | – | – | – | – | –
3 | – | 9.6 | 9.7 | – | – | N=C(N)NCCC[C@H](NC(=O)c1ccccc1)C(N)=O | – | – | – | – | –
4 | 110 | – | – | 2100 | 210 | CC(C)(C)c1ccc(C(=O)N[C@@H](Cc2ccc(NC(=N)N)cc2)C(=O)N[C@@H](CCCNC(=N)N)B(O)O)cc1 | 78 | > 100000 | 160 | 30 | EC50 (dengue virus type 2 [7]): 19000 nM
5 | – | 22 | 9.8 | – | – | N=C(N)NCCC[C@H](NC(=O)[C@@H](NC(=O)c1ccccc1)c1cccc(NC(=N)N)c1)C(N)=O | – | – | – | – | –
6 | – | 18 | 51.9 | > 50000 | – | N=C(N)NCCC[C@H](NC(=O)c1ccccc1)B(O)O | – | > 100000 | – | 19 | Activity (dengue virus type 2 [9]): 12%
7 | – | 30 | 8.3 | > 50000 | – | NCCC[C@H](NC(=O)c1ccccc1)B(O)O | – | > 100000 | – | 33 | Activity (dengue virus type 2 [9]): 7.5%
8 | 36 | – | – | 830 | 71 | N=C(N)NCCC[C@H](NC(=O)[C@H](Cc1ccc(NC(=N)N)cc1)NC(=O)c1ccccc1)B(O)O | 27 | > 100000 | 65 | – | EC50 (dengue virus type 2 [7]): 18000 nM; EC50 (West Nile virus [10]): 25000 nM
9 | 87000 | 34 | – | – | – | N=C(N)NCCC[C@H](NC(=O)[C@H](Cc1ccc(NC(=N)N)cc1)NC(=O)c1ccccc1)C(N)=O (Bz-[Phe(4-guanidino)]-Arg-NH2) | 29000 | – | – | – | –
10 | 66 | – | – | 250 | 110 | N=C(N)NCCC[C@H](NC(=O)[C@H](Cc1ccc(CN)cc1)NC(=O)c1ccccc1)B(O)O | 51 | > 100000 | 82 | – | Ki [4]: 40 nM; EC50 (dengue virus type 2 [7]): 30000 nM; EC50 (West Nile virus [10]): 38000 nM
11 | 145000 | 34 | – | – | – | CC(C)(C)c1ccc(C(=O)N[C@@H](Cc2ccc(NC(=N)N)cc2)C(=O)N[C@@H](CCCNC(=N)N)C(N)=O)cc1 | – | – | – | – | –
12 | 260 | – | – | 1200 | 140 | N=C(N)NCCC[C@H](NC(=O)[C@@H](NC(=O)c1ccccc1)c1cccc(NC(=N)N)c1)B(O)O | 220 | > 100000 | 120 | 47 | Activity (dengue virus type 2 [9]): 24%
13 | – | 13 | 5.2 | – | – | N=C(N)NCCC[C@H](NC(=O)[C@H](Cc1ccc(N)cc1)NC(=O)c1ccccc1)C(N)=O (Bz-[Phe(4-NH2)]-Arg-NH2) | – | – | – | – | –
14 | – | 18 | 2 | – | – | NCCC[C@H](NC(=O)c1ccccc1)C(N)=O | – | – | – | – | –
15 | 7400 | – | – | > 40000 | 7400 | N=C(N)NCCC[C@H](NC(=O)[C@H](Cc1ccc(N)cc1)NC(=O)c1ccccc1)B(O)O | 4200 | 10100 | 6000 | – | Activity (dengue virus type 2 [11]): 44%; EC50 (West Nile virus [10]): 1500 nM
16 | 110 | – | – | 1900 | 310 | N=C(N)NCCC[C@H](NC(=O)[C@H](Cc1cccc(NC(=N)N)c1)NC(=O)c1ccccc1)B(O)O | 91 | ≥ 100000 | 300 | 38 | EC50 (dengue virus type 2 [7]): 48000 nM
